Patent publication US20080033053A1, “Cross-Reference To Related Applications” (priority 2004, published 2008)

How the values were obtained:
[1] = test system: human peripheral blood lymphocytes; details: in vitro; cited from earlier work
[2] = test system: patients with Huntington's disease; details: eight patients with Huntington's disease, open-label; cited from earlier work
[3] = by glomerular filtration and renal tubular secretion; cited from earlier work
[4] = Ames Test; cited from earlier work
[5] = humans, cited from earlier work
retinas from rats = test: RNA expression profiling of retina, vehicle vs. (low dose & high dose) amantadine at steady state; assay type: in vivo, Sprague Dawley rats
rats = details: cited from earlier work
[6] = test system: Chinese Hamster Ovary cells; details: cited from earlier work
mouse bone marrow = details: in vivo mouse bone marrow micronucleus test; cited from earlier work

In the case of Cl.NC12CC3CC(CC(C3)C1)C2 [amantadine, 1-amino adamantane HCl], the chromosomal damage [1] is listed as “no evidence of chromosomal damage”, the dyskinesias [2] is listed as “significant reduction of dyskinesias” and the excretion [3] is listed as “primarily excreted unchanged in the urine”. The mutagenicity [4] was “non-mutagenic”, the “half-life, range” value [5] was 10 to 25 h and the half-life ([5]; mean ± spread) was 17 ± 4 h. The TRADD gene expression (retinas from rats; retinas following amantadine treatment, no fold change printed) was “down-regulated”, the “up-regulation of several crystallins” value (retinas from rats; retinas of amantadine-treated rats) was 4-21 fold and the teratogenic dose (rats) was 50 mg/kg/day. The mutagenicity [6] was “non-mutagenic” and the chromosomal damage (mouse bone marrow) was “no evidence of chromosomal damage”.
